Results as given in US20210308188A1, “CELL CLUSTER INCLUDING OLFACTORY NEURON OR PRECURSOR CELL THEREOF, AND METHOD FOR PRODUCING SAME” (SUMITOMO CHEMICAL COMPANY, LIMITED, priority 2018, published 2021).

Columns and labels:
Assay type in all cases: cell-based
human iPS cells [1] = assay: Cell cluster production with EGF and second Wnt signaling pathway inhibitory substance (Experiment 6); settings: EGF 20 ng/ml added on day 13 and XAV939 300 nM on day 17 (both added); day 28
Method: In Experiment 6, as shown in the upper section of FIG. 17, a cell cluster including an olfactory receptor neuron or a precursor cell thereof was produced by performing step (3c) as step (3) from the beginning, adding EGF from the middle of step (3c), and then culturing in the presence of XAV939 as a second Wnt signaling pathway inhibitory substance. The same manipulations as in Experiment 3 were performed except for those specifically indicated.
Specifically, steps (a), (1) and (2) were started with maintenance-cultured human iPS cells, and then, on day 3 after the start of suspension culturing, the medium was half exchanged with a serum-free medium being free of Y27632 and BMP4 and containing IWP-2, SB-431542, FGF2, Heparin Sodium and K02288 (start of step (3c)). FGF2, Heparin Sodium, and K02288 were included to be final concentrations in the well of 20 ng/ml, 10 μg/ml, and 1 μM, respectively. Thereafter, on days 6 and 10 after the start of suspension culturing, the medium was half exchanged with a serum-free medium being free of Y27632 and BMP4 and containing IWP-2, SB-431542, FGF2, Heparin Sodium and K02288. In addition, on day 13 after the start of suspension culturing, in addition to the above factors, EGF (manufactured by PrimeGene Co., Ltd.) was added to be a final concentration of 20 ng/ml. […]

[2] = system: human iPS cell line HC-6 #10; assay: Combination use of Wnt signaling pathway-activating substance and inhibitory substance in cell cluster production (Experiment 14)
Description: Cell clusters were produced in accordance with the procedures shown in the upper section of FIG. 28 by using Wnt signaling pathway-activating substance and inhibitory substance in combination. Human iPS cells (HC-6 #10 cell line, obtained from the Institute of Physical and Chemical Research) were subjected to maintenance culturing and step (a) in the same manner as in Experiment 1. The suspension culturing was started on a 96-well culture plate in the same manner as in Experiment 1, except that the number of cells per well was 9×10^3 cells. At the start of suspension culturing (day 0 after the start of suspension culturing, start of step (1)), Y27632 (final concentration 20 μM), IWP-2 (final concentration 2 μM), and SB-431542 (final concentration 1 μM) were added to the serum-free medium. In addition, CHIR99021 (manufactured by Cayman Chemical, Inc.) was added as a Wnt signaling pathway-activating substance such that the final concentration was 300 nM. When the Wnt signaling pathway inhibitory substance IWP-2 and the Wnt signaling pathway-activating substance CHIR99021 are used in combination, β-catenin-dependent Wnt Canonical Pathway is activated and β-catenin-independent Wnt-non-Canonical Pathway is inhibited. On day 2 after the start of suspension culturing, a serum-free medium being free of Y27632 and containing SB-431542, BMP4, IWP-2 and CHIR99021 was added at 100 μl per well (start of step (2)). BMP4 was added to the medium at 3 nM to be a final concentration in the well of 1.5 nM. On day 3 after the start of suspension culturing, the medium was half exchanged with a serum-free medium being free of Y27632 and BMP4 and containing IWP-2, SB-431542, FGF2 and CHIR99021 (start of step (3a)). Thereafter, on days 6 and 10 after the start of suspension culturing, the medium was half exchanged with a serum-free medium being free of Y27632 and BMP4 and containing IWP-2, SB-431542, FGF2, CHIR99021, and K02288 (start of step (3c)). […]

human iPS cells [3] = assay: Study for first Wnt signaling pathway inhibitory substance in cell cluster production (Experiment 9); settings: added from start of suspension culturing (IWP-2, IWP-3, IWP-4 2 μM; Wnt C-59 20 nM; KY02111 1 μM); BMP4 on day 2; day 28
Method: In Experiment 9, a study of cell cluster production efficiency was performed for the type of the first Wnt signaling pathway inhibitory substance, using human iPS cells. The experiments were performed in accordance with the procedures shown in the upper section of FIG. 22, and the same manipulations as in Experiment 3 were performed except for those specifically indicated. The suspension culturing of the human iPS cells subjected to maintenance culturing and step (a) was started in a medium supplemented with a first Wnt signaling pathway inhibitory substance, Y27632 (final concentration 20 μM) and SB-431542 (final concentration 1 μM).
As the first Wnt signaling pathway inhibitory substance, IWP-2 (manufactured by Tocris Biosciences, final concentration 2 μM), IWP-3 (manufactured by Cayman Chemicals, final concentration 2 μM), IWP-4 (manufactured by Cayman Chemicals, final concentration 2 μM), Wnt C-59 (manufactured by Cayman Chemicals, final concentration 20 nM), or KY02111 (manufactured by Cayman Chemicals, final concentration 1 μM) was used. As a control in which the first Wnt signaling pathway inhibitory substance was not added, DMSO was added.
On day 2 after the start of suspension culturing, a serum-free medium being free of Y27632 and containing each first Wnt signaling pathway inhibitory substance, SB-431542 and BMP4 (final concentration 1.5 nM) was added at 100 μl per well. In addition, on day 3 after the start of suspension culturing, the medium was half exchanged with a serum-free medium being free of Y27632 and BMP4 and containing SB-431542, K02288, FGF2, Heparin Sodium, and EGF. K02288, FGF2, Heparin Sodium, EGF were included to final concentrations in the well were 10 μM, 20 ng/ml, 10 μg/ml and 20 ng/ml, respectively. On days 6, 10, 13, 17, 21, and 24 after the start of suspension culturing, the medium was half exchanged with a serum-free medium being free of Y27632 and BMP4 and containing each first Wnt signaling pathway inhibitory substance, SB-431542, K02288, FGF2, Heparin Sodium, and EGF.
On day 28 after the start of suspension culturing, bright-field observation was performed with an inverted microscope (FIGS. 22A to 22F).
The cell clusters on day 28 after the start of suspension culturing were subjected to immunofluorescence staining in accordance with the same method as in Comparative Experiment 1. As primary antibodies, an anti-Six1 antibody and an anti-pan-cytokeratin antibody staining placode and non-neural epithelial tissues, and an anti-Sox2 antibody staining placode and neural cells, described in Table 1, were used. As fluorescently labeled secondary antibodies, an Alexa488-labeled donkey anti-rabbit antibody, a CF555-labeled donkey anti-goat antibody, and an Alexa647-labeled donkey anti-mouse antibody, described in Table 2, were used to perform multiple staining. Hoechst 33342 was used for contrast staining of the nucleus. The positive and negative determinations of the staining results were performed in the same manner as in Preliminary Experiment 1.
Under the conditions in which the first Wnt signaling pathway inhibitory substance was not added, no non-neural epithelial tissue was formed on the surface of the cell aggregate even when BMP4 was added on day 2 after the start of suspension culturing.

[4] = CHIR99021 300 nM added together with IWP-2 2 μM, day 21

Row | Compound | formation of aggregates having non-neural epithelial tissues on the surface (human iPS cells [3]) | also measured
1 | O=c1[nH]c(-c2ccc(C(F)(F)F)cc2)nc2c1CSCC2 [3,5,7,8-Tetrahydro-2-[4-(trifluoromethyl)phenyl]-4H-thiopyrano[4,3-d]pyrimidin-4-one] |  | stability of non-neural epithelial tissue part including olfactory receptor neuron or precursor cell versus conditions without addition (human iPS cells [1]): more stable
2 | Cc1c[nH]c(-c2cnc(NCCNc3ccc(C#N)cn3)nc2-c2ccc(Cl)cc2Cl)n1 [CHIR99021] |  | formation of olfactory epithelial-like tissue on the external of the cell cluster [2, 4]: formed an olfactory epithelial-like tissue on the external of the cell cluster; number of dead cells in neural tissues inside of the cell clusters [2, 4]: reduced; extent of CHIR99021 at which Wnt-Canonical Pathway activity promotes survival of nervous tissues inside of the cell cluster and epithelial formation ([2]; combination with IWP-2): ≤ 3 µM
3 | Cc1ccc2nc(NC(=O)CSc3nc4c(c(=O)n3-c3ccccc3)SCC4)sc2c1 [IWP-2, N-(6-Methyl-2-benzothiazolyl)-2-[(3,4,6,7-tetrahydro-4-oxo-3-phenylthieno[3,2-d]pyrimidin-2-yl)thio]-acetamide] | aggregates having non-neural epithelial tissues on the surface were formed | 
4 | Cc1ccc2nc(NC(=O)CSc3nc4c(c(=O)n3-c3ccc(F)cc3)SCC4)sc2c1 [IWP-3, 2-[[3-(4-fluorophenyl)-3,4,6,7-tetrahydro-4-oxothieno[3,2-d]pyrimidin-2-yl]thio]-N-(6-methyl-2-benzothiazolyl)-acetamide] | aggregates having non-neural epithelial tissues on the surface were formed | 
5 | COc1ccccc1-n1c(SCC(=O)Nc2nc3ccc(C)cc3s2)nc2c(c1=O)SCC2 [IWP-4, N-(6-methyl-2-benzothiazolyl)-2-[[3,4,6,7-tetrahydro-3-(2-methoxyphenyl)-4-oxothieno[3,2-d]pyrimidin-2-yl]thio]-acetamide] | aggregates having non-neural epithelial tissues on the surface were formed | 
6 | COc1ccc(CCC(=O)Nc2nc3ccc(Cl)cc3s2)cc1OC [KY02111, N-(6-Chloro-2-benzothiazolyl)-3,4-dimethoxybenzenepropanamide] | aggregates having non-neural epithelial tissues on the surface were formed | 
7 | Cc1cc(-c2ccc(CC(=O)Nc3ccc(-c4cccnc4)cc3)cc2)ccn1 [Wnt C-59, 2-[4-(2-Methylpyridin-4-yl)phenyl]-N-[4-(pyridin-3-yl)phenyl]acetamide] | aggregates having non-neural epithelial tissues on the surface were formed | 
8 | EGF: EGF signaling pathway-activating substance, manufactured by PrimeGene (NSDSECPLSHDGYCLHDGVCMYIEALDKYACNCVVGYIGERCQYRDLKWWELR; Epidermal growth factor; UniProt P01133 971-1023, looked up) |  | stability of non-neural epithelial tissue part including olfactory receptor neuron or precursor cell versus conditions without addition (human iPS cells [1]): more stable
